Measured values reported in ChEMBL document CHEMBL5678818, “Discovery of potent SOS1 inhibitors that block RAS activation via disruption of the RAS-SOS1 interaction” (Proc Natl Acad Sci U S A, 2019).

What was measured:
[1] = target: Serine/threonine-protein kinase WNK4 (Homo sapiens) (UniProt Q96J92); assay: Inhibition of WNK4 (unknown origin) assessed as residual activity at 1000 nM by KINOMEscan analysis relative to control
[2] = target: Phosphatidylinositol 4,5-bisphosphate 3-kinase catalytic subunit gamma isoform (Homo sapiens) (UniProt P48736); assay: Inhibition of PIK3CG (unknown origin) assessed as residual activity at 100 nM by KINOMEscan analysis relative to control
[3] = target: T1, TGF-beta receptor type-1 (Homo sapiens) (UniProt P36897); assay: Inhibition of TGFBR1 (unknown origin) assessed as residual activity at 100 nM by KINOMEscan analysis relative to control
T1 sequence (whole entry): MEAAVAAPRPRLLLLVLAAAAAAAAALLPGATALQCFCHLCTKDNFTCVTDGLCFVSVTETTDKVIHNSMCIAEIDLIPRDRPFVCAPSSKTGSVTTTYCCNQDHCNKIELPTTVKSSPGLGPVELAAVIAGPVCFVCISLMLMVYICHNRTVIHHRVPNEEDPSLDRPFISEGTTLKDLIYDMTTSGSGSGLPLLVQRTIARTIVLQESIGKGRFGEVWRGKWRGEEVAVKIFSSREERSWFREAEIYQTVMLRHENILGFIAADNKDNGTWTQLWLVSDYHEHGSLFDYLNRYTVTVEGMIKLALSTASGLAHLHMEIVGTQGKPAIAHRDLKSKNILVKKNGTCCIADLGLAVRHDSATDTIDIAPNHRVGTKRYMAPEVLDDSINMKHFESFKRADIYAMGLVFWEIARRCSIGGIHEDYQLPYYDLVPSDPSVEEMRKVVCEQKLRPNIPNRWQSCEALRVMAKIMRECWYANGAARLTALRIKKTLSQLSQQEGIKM

[4] = target: T2, Dual specificity mitogen-activated protein kinase kinase 3 (Homo sapiens) (UniProt P46734); assay: Inhibition of MEK3 (unknown origin) assessed as residual activity at 100 nM by KINOMEscan analysis relative to control
T2 sequence (whole entry): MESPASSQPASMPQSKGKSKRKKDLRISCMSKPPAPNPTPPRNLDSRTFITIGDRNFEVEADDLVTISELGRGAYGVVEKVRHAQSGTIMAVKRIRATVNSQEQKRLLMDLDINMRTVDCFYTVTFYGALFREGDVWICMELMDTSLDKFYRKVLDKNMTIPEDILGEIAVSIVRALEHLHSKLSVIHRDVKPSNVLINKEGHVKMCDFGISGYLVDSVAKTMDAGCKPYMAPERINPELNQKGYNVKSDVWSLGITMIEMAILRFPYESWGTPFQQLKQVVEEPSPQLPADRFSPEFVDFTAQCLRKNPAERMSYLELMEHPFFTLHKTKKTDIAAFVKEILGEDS

[5] = target: T3, SNF-related serine/threonine-protein kinase (Homo sapiens) (UniProt Q9NRH2); assay: Inhibition of SNRK (unknown origin) assessed as residual activity at 100 nM by KINOMEscan analysis relative to control
T3 sequence (whole entry): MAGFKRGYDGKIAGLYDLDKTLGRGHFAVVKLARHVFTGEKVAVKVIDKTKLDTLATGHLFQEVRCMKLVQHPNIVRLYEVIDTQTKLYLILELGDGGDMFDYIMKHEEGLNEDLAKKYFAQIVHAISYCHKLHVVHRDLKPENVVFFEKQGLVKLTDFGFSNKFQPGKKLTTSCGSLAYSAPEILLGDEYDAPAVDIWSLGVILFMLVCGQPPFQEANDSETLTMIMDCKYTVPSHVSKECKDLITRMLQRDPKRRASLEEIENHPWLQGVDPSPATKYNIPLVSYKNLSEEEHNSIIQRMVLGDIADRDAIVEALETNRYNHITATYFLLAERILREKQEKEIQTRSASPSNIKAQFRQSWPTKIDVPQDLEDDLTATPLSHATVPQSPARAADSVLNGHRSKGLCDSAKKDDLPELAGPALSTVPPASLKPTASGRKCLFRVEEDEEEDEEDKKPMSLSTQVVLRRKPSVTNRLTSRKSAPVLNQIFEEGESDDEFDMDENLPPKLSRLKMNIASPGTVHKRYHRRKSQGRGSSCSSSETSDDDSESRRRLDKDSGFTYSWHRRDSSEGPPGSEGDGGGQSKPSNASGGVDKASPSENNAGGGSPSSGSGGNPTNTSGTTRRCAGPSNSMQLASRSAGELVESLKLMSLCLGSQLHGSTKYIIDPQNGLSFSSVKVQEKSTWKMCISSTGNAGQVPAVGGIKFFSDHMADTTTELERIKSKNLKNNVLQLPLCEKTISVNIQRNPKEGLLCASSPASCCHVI

[6] = target: T4, NUAK family SNF1-like kinase 2 (Homo sapiens) (UniProt Q9H093); assay: Inhibition of SNARK (unknown origin) assessed as residual activity at 100 nM by KINOMEscan analysis relative to control
T4 sequence (whole entry): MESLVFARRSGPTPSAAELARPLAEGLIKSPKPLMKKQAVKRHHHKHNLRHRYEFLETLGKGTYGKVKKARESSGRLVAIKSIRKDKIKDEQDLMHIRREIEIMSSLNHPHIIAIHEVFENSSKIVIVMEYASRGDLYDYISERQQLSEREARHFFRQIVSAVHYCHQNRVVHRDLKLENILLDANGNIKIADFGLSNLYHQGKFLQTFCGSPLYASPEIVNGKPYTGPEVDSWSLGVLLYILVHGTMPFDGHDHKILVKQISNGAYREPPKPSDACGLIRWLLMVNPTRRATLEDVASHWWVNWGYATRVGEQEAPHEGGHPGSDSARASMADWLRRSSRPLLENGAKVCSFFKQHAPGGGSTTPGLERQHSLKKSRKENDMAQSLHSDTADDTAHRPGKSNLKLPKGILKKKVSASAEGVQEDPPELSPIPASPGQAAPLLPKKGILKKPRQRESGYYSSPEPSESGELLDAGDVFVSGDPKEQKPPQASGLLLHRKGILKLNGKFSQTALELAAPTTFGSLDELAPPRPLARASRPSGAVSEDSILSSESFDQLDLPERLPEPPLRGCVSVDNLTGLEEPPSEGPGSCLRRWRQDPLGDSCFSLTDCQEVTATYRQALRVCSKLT

[7] = target: Serine/threonine-protein kinase PRP4 homolog (Homo sapiens) (UniProt Q13523); assay: Inhibition of PRP4 (unknown origin) assessed as residual activity at 100 nM by KINOMEscan analysis relative to control
[8] = target: Serine/threonine-protein kinase MRCK alpha (Homo sapiens) (UniProt Q5VT25); assay: Inhibition of MRCKA (unknown origin) assessed as residual activity at 100 nM by KINOMEscan analysis relative to control
[9] = target: Myosin light chain kinase 2, skeletal/cardiac muscle (Homo sapiens) (UniProt Q9H1R3); assay: Inhibition of MYLK2 (unknown origin) assessed as residual activity at 100 nM by KINOMEscan analysis relative to control
[10] = target: SRSF protein kinase 2 (Homo sapiens) (UniProt P78362); assay: Inhibition of SRPK2 (unknown origin) assessed as residual activity at 100 nM by KINOMEscan analysis relative to control

Chain of Serine/threonine-protein kinase PRP4 homolog (Homo sapiens) (Q13523 whole entry): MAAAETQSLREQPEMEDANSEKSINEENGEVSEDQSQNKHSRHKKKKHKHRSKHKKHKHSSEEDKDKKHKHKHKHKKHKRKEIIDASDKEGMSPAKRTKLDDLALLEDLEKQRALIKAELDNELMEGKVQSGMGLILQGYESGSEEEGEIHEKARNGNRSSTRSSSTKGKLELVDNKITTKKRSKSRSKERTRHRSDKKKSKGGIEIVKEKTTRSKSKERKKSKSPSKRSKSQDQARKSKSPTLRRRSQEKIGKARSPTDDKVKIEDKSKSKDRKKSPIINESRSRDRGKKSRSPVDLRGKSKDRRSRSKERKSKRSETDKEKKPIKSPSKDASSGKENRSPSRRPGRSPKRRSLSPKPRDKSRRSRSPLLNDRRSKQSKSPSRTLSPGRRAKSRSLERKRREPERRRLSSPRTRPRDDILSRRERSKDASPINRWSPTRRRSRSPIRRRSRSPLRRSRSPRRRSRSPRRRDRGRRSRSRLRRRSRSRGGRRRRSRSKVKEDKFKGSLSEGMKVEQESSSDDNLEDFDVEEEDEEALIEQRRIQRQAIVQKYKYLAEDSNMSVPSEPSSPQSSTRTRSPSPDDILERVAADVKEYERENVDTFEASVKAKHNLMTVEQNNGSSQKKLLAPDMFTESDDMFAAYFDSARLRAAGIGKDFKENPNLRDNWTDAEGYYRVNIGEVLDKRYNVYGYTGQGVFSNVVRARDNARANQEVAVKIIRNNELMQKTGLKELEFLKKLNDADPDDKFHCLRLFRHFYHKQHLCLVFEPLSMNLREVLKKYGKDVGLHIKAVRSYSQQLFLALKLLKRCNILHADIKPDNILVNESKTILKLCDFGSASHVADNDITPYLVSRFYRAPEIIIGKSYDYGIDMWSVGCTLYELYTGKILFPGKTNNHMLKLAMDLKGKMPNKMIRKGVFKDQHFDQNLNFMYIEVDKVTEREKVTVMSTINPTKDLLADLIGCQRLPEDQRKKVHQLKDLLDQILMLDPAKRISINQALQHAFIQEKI
Chain of Serine/threonine-protein kinase WNK4 (Homo sapiens) (Q96J92 whole entry, canonical isoform): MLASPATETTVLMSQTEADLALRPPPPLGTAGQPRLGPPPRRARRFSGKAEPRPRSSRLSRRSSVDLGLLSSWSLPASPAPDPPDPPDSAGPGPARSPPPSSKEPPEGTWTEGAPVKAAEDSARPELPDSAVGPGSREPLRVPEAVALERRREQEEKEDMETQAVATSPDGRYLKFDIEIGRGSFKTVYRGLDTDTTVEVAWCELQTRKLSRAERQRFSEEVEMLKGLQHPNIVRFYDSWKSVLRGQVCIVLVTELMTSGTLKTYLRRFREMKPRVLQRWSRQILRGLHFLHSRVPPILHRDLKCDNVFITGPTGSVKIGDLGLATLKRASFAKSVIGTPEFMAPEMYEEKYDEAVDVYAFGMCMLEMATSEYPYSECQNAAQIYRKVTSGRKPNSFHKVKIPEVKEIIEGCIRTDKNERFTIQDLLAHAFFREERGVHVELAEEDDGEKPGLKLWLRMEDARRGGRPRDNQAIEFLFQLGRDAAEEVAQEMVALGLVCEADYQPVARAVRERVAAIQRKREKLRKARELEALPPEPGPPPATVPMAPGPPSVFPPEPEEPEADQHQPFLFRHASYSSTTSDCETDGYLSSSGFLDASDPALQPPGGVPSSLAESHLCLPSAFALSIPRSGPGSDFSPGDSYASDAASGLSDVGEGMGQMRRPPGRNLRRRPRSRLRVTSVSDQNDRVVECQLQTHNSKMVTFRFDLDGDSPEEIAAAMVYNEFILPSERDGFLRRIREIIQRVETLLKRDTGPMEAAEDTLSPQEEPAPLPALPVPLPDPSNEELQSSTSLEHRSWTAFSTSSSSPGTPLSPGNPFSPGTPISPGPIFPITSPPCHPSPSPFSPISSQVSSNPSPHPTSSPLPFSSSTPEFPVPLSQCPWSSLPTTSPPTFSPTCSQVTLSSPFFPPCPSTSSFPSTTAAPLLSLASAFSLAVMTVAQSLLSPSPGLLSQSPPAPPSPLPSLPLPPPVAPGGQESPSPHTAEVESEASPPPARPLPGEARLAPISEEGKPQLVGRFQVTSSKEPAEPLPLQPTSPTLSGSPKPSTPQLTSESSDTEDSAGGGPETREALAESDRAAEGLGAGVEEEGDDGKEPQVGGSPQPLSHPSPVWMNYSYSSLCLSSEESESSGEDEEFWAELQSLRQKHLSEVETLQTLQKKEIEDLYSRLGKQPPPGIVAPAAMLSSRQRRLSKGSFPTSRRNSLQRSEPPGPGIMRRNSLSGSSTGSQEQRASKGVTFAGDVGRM
Chain of Serine/threonine-protein kinase MRCK alpha (Homo sapiens) (Q5VT25 whole entry): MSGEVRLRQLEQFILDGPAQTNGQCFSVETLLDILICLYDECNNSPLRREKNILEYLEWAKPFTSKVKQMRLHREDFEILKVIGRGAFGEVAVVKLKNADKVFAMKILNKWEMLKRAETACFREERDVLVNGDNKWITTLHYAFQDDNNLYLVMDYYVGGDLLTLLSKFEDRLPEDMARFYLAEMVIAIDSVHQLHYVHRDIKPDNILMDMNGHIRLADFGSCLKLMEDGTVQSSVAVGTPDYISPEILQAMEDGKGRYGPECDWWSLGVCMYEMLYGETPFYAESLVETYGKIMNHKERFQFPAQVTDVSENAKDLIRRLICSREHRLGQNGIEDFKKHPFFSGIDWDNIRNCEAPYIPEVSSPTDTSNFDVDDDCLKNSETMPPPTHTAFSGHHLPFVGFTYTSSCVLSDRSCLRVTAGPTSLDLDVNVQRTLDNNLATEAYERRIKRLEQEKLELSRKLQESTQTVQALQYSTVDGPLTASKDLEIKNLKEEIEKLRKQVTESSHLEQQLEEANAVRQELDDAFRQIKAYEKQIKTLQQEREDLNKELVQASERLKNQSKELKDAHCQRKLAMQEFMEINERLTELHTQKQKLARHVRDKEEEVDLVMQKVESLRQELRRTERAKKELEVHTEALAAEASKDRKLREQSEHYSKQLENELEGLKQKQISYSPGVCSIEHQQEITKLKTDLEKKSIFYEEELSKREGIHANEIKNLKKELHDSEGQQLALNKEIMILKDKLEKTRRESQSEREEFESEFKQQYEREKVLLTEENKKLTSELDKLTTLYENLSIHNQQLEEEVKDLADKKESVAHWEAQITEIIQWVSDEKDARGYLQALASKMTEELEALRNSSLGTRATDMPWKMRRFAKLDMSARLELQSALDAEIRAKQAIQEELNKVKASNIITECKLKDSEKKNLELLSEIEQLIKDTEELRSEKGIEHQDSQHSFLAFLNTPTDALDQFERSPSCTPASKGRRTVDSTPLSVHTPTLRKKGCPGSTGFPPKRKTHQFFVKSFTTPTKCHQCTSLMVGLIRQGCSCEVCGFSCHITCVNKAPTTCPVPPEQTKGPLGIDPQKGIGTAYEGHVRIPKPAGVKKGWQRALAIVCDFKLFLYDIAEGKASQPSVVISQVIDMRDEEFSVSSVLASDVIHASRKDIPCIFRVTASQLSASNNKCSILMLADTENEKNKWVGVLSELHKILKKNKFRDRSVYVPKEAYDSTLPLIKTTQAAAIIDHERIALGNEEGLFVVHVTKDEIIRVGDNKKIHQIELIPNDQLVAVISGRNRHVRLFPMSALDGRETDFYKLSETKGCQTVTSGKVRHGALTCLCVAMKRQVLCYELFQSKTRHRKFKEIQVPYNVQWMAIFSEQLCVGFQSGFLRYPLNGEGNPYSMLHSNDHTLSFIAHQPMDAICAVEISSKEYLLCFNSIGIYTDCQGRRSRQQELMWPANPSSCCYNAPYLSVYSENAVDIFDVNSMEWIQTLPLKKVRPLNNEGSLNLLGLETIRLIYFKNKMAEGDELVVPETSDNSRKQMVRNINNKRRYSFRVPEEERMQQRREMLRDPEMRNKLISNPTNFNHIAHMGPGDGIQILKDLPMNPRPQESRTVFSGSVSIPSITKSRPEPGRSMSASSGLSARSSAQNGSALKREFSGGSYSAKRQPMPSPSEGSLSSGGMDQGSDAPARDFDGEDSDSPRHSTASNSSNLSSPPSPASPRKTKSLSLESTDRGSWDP
Chain of Myosin light chain kinase 2, skeletal/cardiac muscle (Homo sapiens) (Q9H1R3 whole entry): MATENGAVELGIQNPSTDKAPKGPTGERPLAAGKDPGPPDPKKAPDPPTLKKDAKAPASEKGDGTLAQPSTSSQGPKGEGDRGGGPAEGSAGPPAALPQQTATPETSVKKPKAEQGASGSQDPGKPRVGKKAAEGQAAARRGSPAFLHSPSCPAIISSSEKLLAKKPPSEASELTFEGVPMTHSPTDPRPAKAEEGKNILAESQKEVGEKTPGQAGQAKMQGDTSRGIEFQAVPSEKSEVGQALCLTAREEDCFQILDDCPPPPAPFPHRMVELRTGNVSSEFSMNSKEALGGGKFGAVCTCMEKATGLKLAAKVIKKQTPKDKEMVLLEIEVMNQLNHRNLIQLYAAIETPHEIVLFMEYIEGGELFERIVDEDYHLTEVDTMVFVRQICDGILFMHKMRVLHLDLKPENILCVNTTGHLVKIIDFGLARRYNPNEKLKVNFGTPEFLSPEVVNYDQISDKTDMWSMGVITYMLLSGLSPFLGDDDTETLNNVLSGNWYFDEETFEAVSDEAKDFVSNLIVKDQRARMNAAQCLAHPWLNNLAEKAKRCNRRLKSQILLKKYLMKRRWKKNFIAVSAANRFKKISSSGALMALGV

Row | SMILES | Activity [1] [%] | Activity [2] [%] | Activity [3] [%] | Activity [4] [%] | Activity [5] [%] | Activity [6] [%] | Activity [7] [%] | Activity [8] [%] | Activity [9] [%] | Activity [10] [%]
1 | COc1cc2nc(C)nc(N[C@H](C)c3cccc(-c4cn[nH]c4)c3)c2cc1OC | 100 | – | – | – | – | – | – | – | – | –
2 | COc1cc2ncnc(N[C@H](C)c3cccc4ccccc34)c2cc1OC | – | 78 | 83 | 90 | 74 | 92 | 95 | 14 | 90 | 92
